According to PMC4619123 (Virology, 2015):

Target: JAK1 (Homo sapiens, UniProt P23458)
Test: ADP-Glo luminescent kinase assay, recombinant JAK1, Poly E4Y1 substrate, […] ATP
Assay type: biochemical

Chain of JAK1 (P23458 whole entry): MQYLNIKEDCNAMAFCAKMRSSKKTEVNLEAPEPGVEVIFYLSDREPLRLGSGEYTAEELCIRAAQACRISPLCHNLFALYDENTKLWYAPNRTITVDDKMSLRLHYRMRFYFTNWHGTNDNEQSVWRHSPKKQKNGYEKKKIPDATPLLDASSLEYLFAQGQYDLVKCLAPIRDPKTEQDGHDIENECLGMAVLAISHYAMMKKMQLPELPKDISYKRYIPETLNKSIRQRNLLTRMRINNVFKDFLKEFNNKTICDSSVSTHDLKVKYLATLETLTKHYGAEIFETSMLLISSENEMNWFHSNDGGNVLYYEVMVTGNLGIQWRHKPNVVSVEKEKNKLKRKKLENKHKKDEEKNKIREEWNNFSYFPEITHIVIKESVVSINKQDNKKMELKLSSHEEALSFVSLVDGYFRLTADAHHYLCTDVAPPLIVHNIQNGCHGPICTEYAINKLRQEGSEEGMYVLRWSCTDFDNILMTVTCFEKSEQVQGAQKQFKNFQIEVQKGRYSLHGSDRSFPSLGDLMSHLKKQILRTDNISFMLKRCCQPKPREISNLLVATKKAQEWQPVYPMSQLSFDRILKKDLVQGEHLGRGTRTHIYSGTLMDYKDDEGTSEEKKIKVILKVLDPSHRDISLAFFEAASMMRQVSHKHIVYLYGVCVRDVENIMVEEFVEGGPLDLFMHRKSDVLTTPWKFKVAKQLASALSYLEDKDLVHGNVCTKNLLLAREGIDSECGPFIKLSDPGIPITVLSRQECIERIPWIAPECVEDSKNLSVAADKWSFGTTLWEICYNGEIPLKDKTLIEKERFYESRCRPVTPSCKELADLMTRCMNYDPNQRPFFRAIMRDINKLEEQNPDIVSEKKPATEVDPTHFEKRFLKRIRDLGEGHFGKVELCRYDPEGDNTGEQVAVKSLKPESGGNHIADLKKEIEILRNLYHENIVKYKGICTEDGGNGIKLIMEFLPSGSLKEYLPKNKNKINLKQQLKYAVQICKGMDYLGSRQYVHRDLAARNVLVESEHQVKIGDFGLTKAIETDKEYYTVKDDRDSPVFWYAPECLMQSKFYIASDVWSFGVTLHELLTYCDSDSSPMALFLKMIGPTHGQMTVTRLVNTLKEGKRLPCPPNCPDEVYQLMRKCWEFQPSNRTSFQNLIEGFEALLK

NC(=O)Nc1sc(-c2ccc(F)cc2)cc1C(N)=O [TPCA-1, 2-[(aminocarbonyl)amino]-5-(4-fluorophenyl)-3-thiophenecarboxamide]
IC50: 43.8 nM
